Laboratory results from patent US9149038B2, “4-amino-6-(heterocyclic)picolinates and 6-amino-2-(heterocyclic)pyrimidine-4-carboxylates and their use as herbicides” (Dow AgroSciences LLC, priority 2013, dated 2015).
Read-outs that look alike come from different tables or passages of the source.

Columns and labels:
[1] = tested on: Key Broadleaf Weed and Crop Species; experiment: Post-Emergent Test II: postemergent herbicidal activity, visual rating after 14 d (Table 7); type: in vivo; settings: post-emergence, 336 h; for pest or weed control at 35 g/ha: 35 g ai/ha; for pest or weed control at 70 g/ha: 70 g ai/ha; for pest or weed control at 140 g/ha: 140 g ai/ha
Method in brief: (§1)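 Scoring is visual, 0-100, at 14 d after application, comparing treated with untreated plants. Application: overhead track spray at 187 L/ha onto seedlings at 1-2 true leaves, in surfactant/crop-oil carrier.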

[2] = tested on: Key Grass and Sedge Weeds as well as Grass Crops; experiment: Post-Emergent Test II: postemergent herbicidal activity, visual rating after 14 d (Table 8); type: in vivo; settings: post-emergence, 336 h; for pest or weed control at 35 g/ha: 35 g ai/ha; for pest or weed control at 70 g/ha: 70 g ai/ha; for pest or weed control at 140 g/ha: 140 g ai/ha
Method in brief: as §1

[3] = ABUTH: velvetleaf (Abutilon theophrasti), read-out: Visual Growth Reduction (%) 14 Days After Application ABUTH
[4] = BRSNN: oilseed rape, canola (Brassica napus), read-out: Visual Growth Reduction (%) 14 Days After Application BRSNN
[5] = CHEAL: lambsquarters (Chenopodium album), read-out: Visual Growth Reduction (%) 14 Days After Application CHEAL
[6] = EPHHL: wild poinsettia (Euphorbia heterophylla), read-out: Visual Growth Reduction (%) 14 Days After Application EPHHL
[7] = HELAN: sunflower (Helianthus annuus), read-out: Visual Growth Reduction (%) 14 Days After Application HELAN
[8] = barnyardgrass (Echinochloa crus-galli), read-out: Visual Growth Reduction (%) 14 Days After Application, ECHCG
[9] = giant foxtail (Setaria faberi), read-out: Visual Growth Reduction (%) 14 Days After Application, SETFA
[10] = maize, corn (Zea mays), read-out: Visual Growth Reduction (%) 14 Days After Application, ZEAMX
[11] = rice (Oryza sativa), read-out: Visual Growth Reduction (%) 14 Days After Application, ORYSA
[12] = wheat, spring (Triticum aestivum), read-out: Visual Growth Reduction (%) 14 Days After Application, TRZAS
[13] = yellow nutsedge (Cyperus esculentus), read-out: Visual Growth Reduction (%) 14 Days After Application, CYPES
[14] = AMARE: redroot pigweed (Amaranthus retroflexus), read-out: Visual Growth Reduction (%) 14 Days After Application AMARE

SMILES | pest or weed control at 35 g/ha [1, 3] | pest or weed control at 70 g/ha [1, 3] | pest or weed control at 140 g/ha [1, 3] | pest or weed control at 35 g/ha [1, 4] | pest or weed control at 70 g/ha [1, 4] | pest or weed control at 140 g/ha [1, 4] | pest or weed control at 35 g/ha [1, 5] | pest or weed control at 70 g/ha [1, 5] | pest or weed control at 140 g/ha [1, 5] | pest or weed control at 35 g/ha [1, 6] | pest or weed control at 70 g/ha [1, 6] | pest or weed control at 140 g/ha [1, 6] | pest or weed control at 35 g/ha [1, 7] | pest or weed control at 70 g/ha [1, 7] | pest or weed control at 140 g/ha [1, 7] | pest or weed control at 35 g/ha [2, 8] | pest or weed control at 70 g/ha [2, 8] | pest or weed control at 140 g/ha [2, 8] | pest or weed control at 35 g/ha [2, 9] | pest or weed control at 70 g/ha [2, 9] | other results
COC(=O)c1nc(-c2cccc3c2OCC3)c(F)c(N)c1Cl [Compound 102] | 0 to 29% | 0 to 29% | 45 to 59% | 0 to 29% | 0 to 29% | 0 to 29% | 95 to 100% | 95 to 100% | 95 to 100% | 0 to 29% | 0 to 29% | 0 to 29% | 75 to 84% | 85 to 94% | 85 to 94% | 0 to 29% | 0 to 29% | 0 to 29% | 0 to 29% | 0 to 29% | pest or weed control at 140 g/ha [2, 9]: 0 to 29%; pest or weed control at 35 g/ha [2, 10]: 0 to 29%; pest or weed control at 70 g/ha [2, 10]: 0 to 29%; pest or weed control at 140 g/ha [2, 10]: 0 to 29%; pest or weed control at 35 g/ha [2, 11]: 0 to 29%; pest or weed control at 70 g/ha [2, 11]: 0 to 29%; pest or weed control at 140 g/ha [2, 11]: 0 to 29%; pest or weed control at 35 g/ha [2, 12]: 0 to 29%; pest or weed control at 70 g/ha [2, 12]: 0 to 29%; pest or weed control at 140 g/ha [2, 12]: 0 to 29%; pest or weed control at 35 g/ha [2, 13]: 0 to 29%; pest or weed control at 70 g/ha [2, 13]: 0 to 29%; pest or weed control at 140 g/ha [2, 13]: 0 to 29%
COC(=O)c1nc(-c2ccc3c(c2)COC3)c(F)c(N)c1Cl [Compound 103, Methyl 4-amino-3-chloro-6-(1,3-dihydroisobenzofuran-5-yl)-5-fluoropicolinate] | 0 to 29% | 0 to 29% | 0 to 29% | 0 to 29% | 0 to 29% | 0 to 29% | 45 to 59% | 85 to 94% | 95 to 100% | 0 to 29% | 0 to 29% | 0 to 29% | 75 to 84% | 75 to 84% | 75 to 84% | 0 to 29% | 0 to 29% | 0 to 29% | 0 to 29% | 0 to 29% | pest or weed control at 35 g/ha [1, 14]: 0 to 29%; pest or weed control at 70 g/ha [1, 14]: 0 to 29%; pest or weed control at 140 g/ha [1, 14]: 0 to 29%; pest or weed control at 140 g/ha [2, 9]: 0 to 29%; pest or weed control at 35 g/ha [2, 10]: 0 to 29%; pest or weed control at 70 g/ha [2, 10]: 0 to 29%; pest or weed control at 140 g/ha [2, 10]: 0 to 29%; pest or weed control at 35 g/ha [2, 11]: 0 to 29%; pest or weed control at 70 g/ha [2, 11]: 0 to 29%; pest or weed control at 140 g/ha [2, 11]: 0 to 29%; pest or weed control at 35 g/ha [2, 12]: 0 to 29%; pest or weed control at 70 g/ha [2, 12]: 0 to 29%; pest or weed control at 140 g/ha [2, 12]: 0 to 29%; pest or weed control at 35 g/ha [2, 13]: 0 to 29%; pest or weed control at 70 g/ha [2, 13]: 0 to 29%; pest or weed control at 140 g/ha [2, 13]: 0 to 29%
Nc1c(F)c(-c2ccc3c(c2)COC3)nc(C(=O)O)c1Cl [Compound 104] | 0 to 29% | 0 to 29% | 0 to 29% | 0 to 29% | 0 to 29% | 0 to 29% | 45 to 59% | 85 to 94% | 85 to 94% | 0 to 29% | 0 to 29% | 0 to 29% | 45 to 59% | 75 to 84% | 75 to 84% | 0 to 29% | 0 to 29% | 0 to 29% | 0 to 29% | 0 to 29% | pest or weed control at 35 g/ha [1, 14]: 0 to 29%; pest or weed control at 70 g/ha [1, 14]: 0 to 29%; pest or weed control at 140 g/ha [1, 14]: 0 to 29%; pest or weed control at 140 g/ha [2, 9]: 0 to 29%; pest or weed control at 35 g/ha [2, 10]: 0 to 29%; pest or weed control at 70 g/ha [2, 10]: 0 to 29%; pest or weed control at 140 g/ha [2, 10]: 0 to 29%; pest or weed control at 35 g/ha [2, 11]: 0 to 29%; pest or weed control at 70 g/ha [2, 11]: 0 to 29%; pest or weed control at 140 g/ha [2, 11]: 0 to 29%; pest or weed control at 35 g/ha [2, 12]: 0 to 29%; pest or weed control at 70 g/ha [2, 12]: 0 to 29%; pest or weed control at 140 g/ha [2, 12]: 0 to 29%; pest or weed control at 35 g/ha [2, 13]: 0 to 29%; pest or weed control at 70 g/ha [2, 13]: 0 to 29%; pest or weed control at 140 g/ha [2, 13]: 0 to 29%
COC(=O)c1nc(-c2ccc3c(c2)SCO3)c(F)c(N)c1Cl [Compound 105] | 0 to 29% | 0 to 29% | 0 to 29% | 0 to 29% | 30 to 44% | 60 to 74% | 30 to 44% | 30 to 44% | 60 to 74% | 60 to 74% | 75 to 84% | 85 to 94% | 85 to 94% | 85 to 94% | 95 to 100% | 45 to 59% | 60 to 74% | 75 to 84% | 0 to 29% | 0 to 29% | pest or weed control at 35 g/ha [1, 14]: 0 to 29%; pest or weed control at 70 g/ha [1, 14]: 0 to 29%; pest or weed control at 140 g/ha [1, 14]: 45 to 59%; pest or weed control at 140 g/ha [2, 9]: 30 to 44%; pest or weed control at 35 g/ha [2, 10]: 0 to 29%; pest or weed control at 70 g/ha [2, 10]: 0 to 29%; pest or weed control at 140 g/ha [2, 10]: 0 to 29%; pest or weed control at 35 g/ha [2, 11]: 0 to 29%; pest or weed control at 70 g/ha [2, 11]: 0 to 29%; pest or weed control at 140 g/ha [2, 11]: 0 to 29%; pest or weed control at 35 g/ha [2, 12]: 0 to 29%; pest or weed control at 70 g/ha [2, 12]: 0 to 29%; pest or weed control at 140 g/ha [2, 12]: 0 to 29%; pest or weed control at 35 g/ha [2, 13]: 0 to 29%; pest or weed control at 70 g/ha [2, 13]: 0 to 29%; pest or weed control at 140 g/ha [2, 13]: 0 to 29%
